Test results reported in patent US20220260565A1, “METHODS OF TREATING AND DIAGNOSING INFLAMMATORY BOWEL DISEASE” (priority 2018, published 2022).

Key:
[1] = system: Malassezia spp.; settings: cited from earlier work
[2] = in vivo; cited from earlier work
[3] = from package insert; cited from earlier work
[4] = system: fungal microbiota; test: Fungal microbiota in stool of antifungal-treated mice (ITS1 sequencing); format: in vivo; settings: 3 weeks in drinking water, stool DNA
Method: (§1) FIG. 24A-24D Antifungal treatment affects bacterial and fungal microbiota in mice. Mice were treated or not for 3 weeks with fluconazole or amphotericin B in their drinking water, DNA was isolated from stool, and fungal and bacterial communities were assessed by sequencing ITS1 and 16S rDNA regions respectively. […] D) Examples of bacteria (families) regulated upon antifungal treatment. * p<0.05; ** p<0.01; *** p<0.001; LDA scores from LEfSe analysis.
(§2) We will investigate the impact of antifungal therapy on the mucosa-associated microbiota in patients by examining samples collected before and after anti-fungal therapy. We will investigate the association between the mycobiota detected by high-throughput ITS (fungal) and 16S (bacterial) rDNA sequencing as well as targeted quantitative PCR in colonic washes, biopsies, and fecal samples. In preliminary studies in mice, we have observed that oral treatment with antifungal drugs (we have tried several) alters the fungal microbiota in fecal samples, which is, of course, not surprising (FIGS. 24A&C), but it also affects the bacterial microbiota (FIGS. 24B&D). The interrelationship between bacterial and fungal microbiota and the susceptibility of these communities to manipulation by antifungal drugs in mice is being further studied in other funded work. […]

[5] = system: bacterial microbiota; test: Bacterial microbiota in stool of antifungal-treated mice (16S rDNA sequencing); format: in vivo; settings: 3 weeks in drinking water, stool DNA
Method: as §1, §2

[6] = system: acute colitis induced by DSS in wild type and Clec7a−/− mice; test: DSS colitis in wild type and Dectin-1-deficient (Clec7a-/-) mice treated with fluconazole; format: in vivo; settings: DSS in drinking water
From the text: DSS colitis in Dectin-1-deficient mice: The inventors examined whether defective immune recognition of fungi could have an impact on colitis and looked at the effects of inducing acute colitis in mice lacking Dectin-1 (Clec7a−/−). The inventors co-housed wild type and Clec7a−/− mice for two weeks before inducing acute colitis by administration of 3% DSS in the drinking water. […] Consistent with the histology, the inventors detected augmented production of IFN-γ and IL-17 in mesenteric lymph nodes (MLNs) and colons from Clec7a−/− mice (FIG. 12D, 12E). Furthermore, in colons of Clec7a−/− mice the inventors detected increased message for TNF-α, IL-23p19 and IL-17a, cytokines previously associated with intestinal inflammation (Not shown).

[7] = system: Malassezia; test: Malassezia levels in stool of mice after oral fluconazole (rDNA sequencing); format: in vivo; settings: oral fluconazole for 1 week
Method: FIG. 22 depicts Efficacy of azole drug on colonic Malassezia in mice. Mice were treated with oral fluconazole for 1 week, and Malassezia levels were measured in the stool by rDNA sequencing.

Compound	MIC against most Malassezia spp. [1]	concentration in feces [2]	first pass effect [2]	common adverse events in clinical trials [3]	effect on fungal microbiota (ITS1 sequencing) [4]	effect on bacterial microbiota (16S sequencing, LEfSe) [5]	effect on colitis ([6]; Dectin-1 knockout (Clec7a−/−) animals)	effect on colitis ([6]; wild type animals)	Malassezia levels in the stool [7]
CC[C@@H]([C@H](C)O)n1ncn(-c2ccc(N3CCN(c4ccc(OC[C@@H]5CO[C@@](Cn6cncn6)(c6ccc(F)cc6F)C5)cc4)CC3)cc2)c1=O [posaconazole]	low	high	low	diarrhea, dyspepsia, nausea, fever, headache, coughing, and hypokalemia					
C[C@@H]1[C@H](O)[C@@H](C)/C=C/C=C/C=C/C=C/C=C/C=C/C=C/[C@H](O[C@@H]2O[C@H](C)[C@@H](O)[C@H](N)[C@@H]2O)C[C@@H]2O[C@](O)(C[C@@H](O)C[C@@H](O)[C@H](O)CC[C@@H](O)C[C@@H](O)CC(=O)O[C@H]1C)C[C@H](O)[C@H]2C(=O)O [amphotericin B]					alter the fungal community	changes in bacterial microbiota			
OC(Cn1cncn1)(Cn1cncn1)c1ccc(F)cc1F [fluconazole]					alter the fungal community	changes in bacterial microbiota	abrogated colitis	little or no effect	depletion of Malassezia from the stool
